Reference: ChEMBL document CHEMBL3734688, “Synthesis and evaluation of 6-methylcoumarin derivatives as potent and selective monoamine oxidase B inhibitors” (Medchemcomm, 2015)

Columns and labels:
[1] = target: T1, Amine oxidase [flavin-containing] B (Homo sapiens, UniProt P27338); experiment: Inhibition of recombinant human MAO-B using p-tyramine as substrate preincubated for 15 mins followed by substrate addition by Amplex Red probe-based fluorometric analysis
T1 sequence (P27338 whole entry): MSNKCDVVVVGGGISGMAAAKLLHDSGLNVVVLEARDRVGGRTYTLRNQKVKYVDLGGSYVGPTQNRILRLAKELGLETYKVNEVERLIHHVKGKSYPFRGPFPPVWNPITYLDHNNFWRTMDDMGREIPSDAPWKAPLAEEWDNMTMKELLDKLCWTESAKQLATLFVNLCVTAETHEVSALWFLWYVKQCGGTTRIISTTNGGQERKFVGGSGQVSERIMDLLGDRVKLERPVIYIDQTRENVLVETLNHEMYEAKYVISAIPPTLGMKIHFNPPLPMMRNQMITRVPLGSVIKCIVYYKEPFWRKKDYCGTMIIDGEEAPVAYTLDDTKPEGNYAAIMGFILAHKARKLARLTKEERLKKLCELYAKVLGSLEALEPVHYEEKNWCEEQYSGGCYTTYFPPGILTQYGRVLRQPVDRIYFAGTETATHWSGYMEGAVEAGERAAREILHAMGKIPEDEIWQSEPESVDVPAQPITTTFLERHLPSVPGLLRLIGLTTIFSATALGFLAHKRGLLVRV

[2] = target: T2, Amine oxidase [flavin-containing] A (Homo sapiens, UniProt P21397); experiment: Inhibition of recombinant human MAO-A using p-tyramine as substrate preincubated for 15 mins followed by substrate addition by Amplex Red probe-based fluorometric analysis
T2 sequence (P21397 whole entry): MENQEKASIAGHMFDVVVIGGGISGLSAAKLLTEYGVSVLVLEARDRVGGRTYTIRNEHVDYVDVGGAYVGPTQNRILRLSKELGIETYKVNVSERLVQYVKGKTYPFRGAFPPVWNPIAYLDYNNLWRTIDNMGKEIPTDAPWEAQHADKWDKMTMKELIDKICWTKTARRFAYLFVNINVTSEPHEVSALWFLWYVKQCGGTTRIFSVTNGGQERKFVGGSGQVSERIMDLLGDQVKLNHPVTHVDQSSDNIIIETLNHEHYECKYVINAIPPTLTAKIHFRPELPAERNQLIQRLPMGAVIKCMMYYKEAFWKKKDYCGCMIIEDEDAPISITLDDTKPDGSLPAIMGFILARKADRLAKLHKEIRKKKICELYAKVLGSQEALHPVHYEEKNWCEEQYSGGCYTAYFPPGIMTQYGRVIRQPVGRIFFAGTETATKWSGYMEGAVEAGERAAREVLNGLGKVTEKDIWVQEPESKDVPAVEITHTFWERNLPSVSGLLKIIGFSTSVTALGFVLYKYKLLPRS

[3] = organism: Homo sapiens; experiment: Selectivity index, ratio of IC50 for recombinant human MAO-A to IC50 for recombinant human MAO-B
[4] = target: T2, Amine oxidase [flavin-containing] A; experiment: Inhibition of recombinant human MAO-A using p-tyramine as substrate at 100 uM preincubated for 15 mins followed by substrate addition by Amplex Red probe-based fluorometric analysis
[5] = test system: HUVEC; experiment: Toxicity in HUVEC assessed as cell viability at 2.5 to 20 uM after 48 hrs by MTT assay; assay type: cell-based; conditions: human
[6] = Neurotoxicity in rat PC12 cells assessed as cell viability at 2.5 to 20 uM after 48 hrs by MTT assay; assay type: toxicity, cell-based; conditions: pc-12, 48 h
[7] = test system: SH-SY5Y; experiment: Neurotoxicity in human SH-SY5Y cells assessed as cell viability at 2.5 to 20 uM after 48 hrs by MTT assay; assay type: toxicity, cell-based

SMILES | IC50 [1] [µM] | IC50 [2] [µM] | Ratio IC50 [3] | inhibition (INH) [4] | Activity [5] | Activity [6] | Activity [7]
Cc1ccc2oc(=O)c(-c3cccnc3)cc2c1 | 2.58 | 6.67 | 2.59 |  |  |  | 
Cc1ccc2oc(=O)c(-c3cccc4ccccc34)cc2c1 | 6.49 | 55.5 | 8.55 |  |  |  | 
Cc1ccc2oc(=O)c(-c3c[nH]c4ccccc34)cc2c1 | 5.67 | 43.9 | 7.75 |  |  |  | 
Cc1ccc2oc(=O)c(-c3cccc(OCCCBr)c3)cc2c1 | 3.67 | 19.5 | 5.3 |  |  |  | 
Cc1ccc2oc(=O)c(-c3cccs3)cc2c1 | 3.76 | 8.09 | 2.16 |  |  |  | 
Cc1ccc2oc(=O)c(-c3cccc(OC(=O)N(C)C)c3)cc2c1 | 4.43 |  | > 22.6 | Not Active |  |  | 
Cc1ccc2oc(=O)c(-c3cccc(OCCCCBr)c3)cc2c1 | 10.7 | 40.6 | 3.79 |  |  |  | 
Cc1ccc2oc(=O)c(-c3cccc(OCCCCN(C)C)c3)cc2c1 | 1.13 | 26.7 | 23.6 |  |  |  | 
Cc1ccc2oc(=O)c(-c3cccc(OCCBr)c3)cc2c1 | 2.45 | 20.7 | 8.47 |  |  |  | 

Molecules with a lower IC50 [1], results first:

IC50 [1] [µM] | IC50 [2] [µM] | Ratio IC50 [3] | inhibition (INH) [4] | SMILES | Activity [5] | Activity [6] | Activity [7]
0.905 | 34.9 | 38.6 |  | Cc1ccc2oc(=O)c(-c3cccc(OCCCN(C)C)c3)cc2c1 |  |  | 
0.253 |  | > 395 | Not Active | Cc1ccc2oc(=O)c(-c3ccccc3OCc3cccc(F)c3)cc2c1 |  |  | 
0.106 |  | > 947 | Not Active | Cc1ccc2oc(=O)c(-c3ccc(OCc4ccccc4)cc3)cc2c1 |  |  | 
0.651 | 15.8 | 24.2 |  | Cc1ccc2oc(=O)c(-c3cccc(OC(=O)c4ccccc4)c3)cc2c1 |  |  | 
0.305 |  | > 328 | Not Active | Cc1ccc(S(=O)(=O)Oc2cccc(-c3cc4cc(C)ccc4oc3=O)c2)cc1 |  |  | 
0.201 |  | > 498 | Not Active | Cc1ccc2oc(=O)c(-c3cccc(OCc4ccccc4)c3)cc2c1 |  |  | 
0.175 |  | > 572 | Not Active | Cc1ccc2oc(=O)c(-c3ccc(OCc4cccc(F)c4)cc3)cc2c1 |  |  | 
0.256 |  | > 390 | Not Active | Cc1ccc2oc(=O)c(-c3ccccc3OCc3ccccc3)cc2c1 |  |  | 
0.714 |  | > 140 | Not Active | CC(=O)Oc1cccc(-c2cc3cc(C)ccc3oc2=O)c1 |  |  | 
0.401 |  | > 249 | Not Active | CC(=O)Oc1ccc(-c2cc3cc(C)ccc3oc2=O)cc1 |  |  | 
0.218 |  | > 459 | Not Active | Cc1ccc2oc(=O)c(-c3cccc(OCCN(C)C)c3)cc2c1 |  |  | 
0.938 |  | > 107 | Not Active | CC(=O)Oc1ccccc1-c1cc2cc(C)ccc2oc1=O |  |  | 
0.0601 |  | > 1660 | Not Active | Cc1ccc2oc(=O)c(-c3cccc(OCc4cccc(F)c4)c3)cc2c1 | Non-toxic | Non-toxic | Non-toxic
